ChEMBL document CHEMBL4715844, “Structure-based virtual screening and biological evaluation of novel non-bisphosphonate farnesyl pyrophosphate synthase inhibitors” (Eur J Med Chem, 2020)

Experiments:
[1] = biological target: T1, Farnesyl pyrophosphate synthase (Rattus norvegicus) (UniProt P05369); assay: Inhibition of rat FPPS expressed in Escherichia coli BL21 (DE3) using GPP and IPP as substrate at 10 uM incubated for 10 mins by microplate reader
T1 sequence (whole entry): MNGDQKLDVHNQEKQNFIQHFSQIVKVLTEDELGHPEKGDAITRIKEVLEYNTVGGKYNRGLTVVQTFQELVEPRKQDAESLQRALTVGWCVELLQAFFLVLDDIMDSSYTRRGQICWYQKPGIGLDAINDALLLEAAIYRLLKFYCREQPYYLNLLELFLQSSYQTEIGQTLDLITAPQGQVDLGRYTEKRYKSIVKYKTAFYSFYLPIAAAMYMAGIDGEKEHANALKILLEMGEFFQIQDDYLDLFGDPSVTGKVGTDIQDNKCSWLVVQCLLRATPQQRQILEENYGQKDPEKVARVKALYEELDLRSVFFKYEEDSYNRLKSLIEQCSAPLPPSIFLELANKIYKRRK

[2] = biological target: T2, Farnesyl pyrophosphate synthase (Rattus norvegicus, UniProt P05369); assay: Binding affinity to rat FPPS expressed in Escherichia coli BL21 (DE3) by isothermal titration calorimetry
T2 sequence (P05369 whole entry): T1 sequence (whole entry)

inhibition [1] [%] | Kd [2] [µM] | SMILES
23.4 | 442 | CNS(=O)(=O)c1cn(CC(=O)Nc2cc(C)cc(C)c2)cc1S(=O)(=O)NC
29.3 | 328 | O=Cc1ccc(O[C@@H]2O[C@H](CO)[C@@H](O)[C@H](O)[C@H]2O)cc1
